40 compounds from ChEMBL document CHEMBL1156829 (Proc Natl Acad Sci U S A, 2008) can be followed below.

The structures appear in SMILES notation.

Data set [1] concerns Plasmodium falciparum. The experiment in a line: NOVARTIS: Inhibition of Plasmodium falciparum 3D7 (drug-susceptible) proliferation in erythrocyte-based infection assay. It counts as functional, organism-based. As to conditions: Plasmodium falciparum, 3D7.
Data set [2] in a line: NOVARTIS: Cytotoxicity against human hepatocellular carcinoma cell line (Huh7). The settings on record: Huh7 cells (hepatocellular carcinoma cell line). The class given is toxicity, cell-based, Huh-7.
Data set [3] relates to Plasmodium falciparum. Description: NOVARTIS: Inhibition of Plasmodium falciparum W2 (drug-resistant) proliferation in erythrocyte-based infection assay. It counts as functional, organism-based. As to conditions: Plasmodium falciparum, W2; read-out: EC50.

`Nc1nc(N)c2cc(S(=O)(=O)c3ccc4ccccc4c3)ccc2n1`: the EC50 – broadly, the concentration at which the effect is half-maximal – in data set [1] was determined as 97.3 nM; in data set [3], 1710 nM. Further, the half-maximal cytotoxic concentration (CC50) – broadly, the concentration giving 50% cytotoxicity – in data set [2] amounted to 49500 nM.

For the compound `CN(Cc1ccccc1)C(=O)CCNS(=O)(=O)c1cc(Br)cnc1N`, the figures for the EC50 in data set [1] and in data set [3] were 614 nM and 355 nM, respectively. The compound further returned a CC50 in data set [2] of over 10000 nM.

For `N=C1NC(=O)/C(=C/C=C/c2ccc([N+](=O)[O-])o2)S1`, the EC50 came out at 1080 nM in data set [1] and 592 nM in data set [3]. In data set [2], the CC50 amounted to 17100 nM.

Take `Cc1cc(Nc2cccc(C(F)(F)F)c2)nc(NCc2ccccc2)n1`: the results for the EC50 in data set [1] and in data set [3] were 178 nM and 553 nM, respectively. Besides, the midpoint of cytotoxicity in data set [2], the CC50, lay at 15600 nM.

As for `CCCCCc1ccc(C(=O)NCCCCNc2ccnc3cc(Cl)ccc23)cc1`, the figures for the EC50 in data set [1] and in data set [3] were 386 nM and 353 nM, respectively. The compound further yielded a cytotoxic concentration (CC50) in data set [2] of over 10000 nM.

As for `CCCn1c(=N)c(C(=O)NC(C)c2ccccc2)cc2c(=O)n3cccc(C)c3nc21` (stereo not given), the values for the EC50 in data set [1] and in data set [3] were 1650 nM and 3530 nM, respectively. Also, the CC50 in data set [2] is over 100000 nM.

Turning to `COc1cc(OC)cc(C(=O)N(CCCC(C)Nc2cc(OC)cc3cccnc23)Cc2ccc(Cl)cc2)c1` (stereo not given), the results for the EC50 in data set [1] and in data set [3] were over 439 nM and 348 nM, respectively. The compound further yielded a CC50 in data set [2] of 9860 nM.

Consider `O=C(CSc1ccc2nnc(-c3cccs3)n2n1)Nc1ccccc1`, for which the half-maximal effective concentration (EC50) in data set [1] is 1400 nM; in data set [3], over 3470 nM. In data set [2], this compound gave a CC50 of over 100000 nM.

Take `Cc1cc(Nc2ccc(C(=O)n3ccnc3)cc2)n2ncnc2n1`: the EC50 in data set [1] was over 1250 nM; in data set [3] it was over 347 nM. The CC50 in data set [2] was over 10000 nM.

Turning to `COc1ccc(CNc2ncnc3c2[nH]c2cc(OC)ccc23)cc1`, the EC50 came out at 958 nM in data set [1] and 856 nM in data set [3]. It took 24100 nM to reach half-maximal cytotoxicity in data set [2] (CC50).

For `COc1ccc(NC(=O)CCn2c(=S)oc3ccccc32)c([N+](=O)[O-])c1`, the EC50 was over 1250 nM in data set [1] and over 346 nM in data set [3]. The CC50 in data set [2] is over 10000 nM.

Regarding `COc1ccc(CN2CSC3=C(C#N)C(c4cccc(OC)c4)CC(=O)N3C2)cc1` (stereo not given), the results for the EC50 in data set [1] and in data set [3] were 3700 nM and 3550 nM, respectively. Besides, the half-maximal cytotoxic concentration (CC50) in data set [2] was over 100000 nM.

Regarding `CCCCCCCCNC(=O)C1CC1c1ccccc1` (stereo not given), the values for the EC50 in data set [1] and in data set [3] were over 10500 nM and 3490 nM, respectively. This compound also showed a CC50 in data set [2] of over 100000 nM.

Consider `CCC(Oc1ccc(C(C)(C)CC)cc1C(C)(C)CC)C(=O)Nc1ccc(Cl)c([N+](=O)[O-])c1` (stereo not given), for which the EC50 is 275 nM in data set [1] and 349 nM in data set [3]. Besides, the CC50 in data set [2] was over 10000 nM.

In the case of `COc1cc(C(=O)NC(c2ccccc2Cl)c2cc(Cl)c3cccnc3c2O)cc(OC)c1OC` (stereo not given), the EC50 came to 6150 nM in data set [1] and 3470 nM in data set [3]. The compound further had a CC50 in data set [2] of over 100000 nM.

For `Cc1cc(Nc2cccc(Cl)c2)nc(NCc2ccccc2)n1`, the EC50 in data set [1] is 51 nM; in data set [3], 607 nM. This compound also returned a CC50 in data set [2] of 17100 nM.

As to `c1ccc2nc3c(nnc4ccccc43)nc2c1`, the concentration giving a half-maximal response (EC50) in data set [1] is 1100 nM; in data set [3], 996 nM. In data set [2], this compound had a CC50 of 28500 nM.

Regarding `O=C(Nc1ccc(Oc2ccccc2)cc1)NC(CN1CCCC1)c1ccccc1` (stereo not given), the values for the EC50 in data set [1] and in data set [3] were 355 nM and 476 nM, respectively. In data set [2], this compound gave a CC50 of 13600 nM.

Turning to `O=C(Nc1ccc(-c2noc(CCc3ccccc3)n2)cc1)c1cccs1`, the half-maximal effective concentration (EC50) in data set [1] came to 903 nM; in data set [3], 554 nM. Further, the cytotoxic concentration (CC50) in data set [2] came out at 15700 nM.

For the compound `COc1cccc(CNc2ncnc3sc(C(=O)NCC4COCCO4)c(C)c23)c1OC` (stereo not given), the EC50 is over 12500 nM in data set [1] and 3500 nM in data set [3]. The CC50 in data set [2] was over 100000 nM.

In the case of `COc1ccc(C(=O)C(C#N)=CNC2CCN(Cc3ccccc3)CC2)cc1`, the EC50 in data set [1] was determined as 177 nM; in data set [3], 875 nM. The compound further yielded a CC50 in data set [2] of 24800 nM.

Consider `CN(CCCNc1ccnc2cc(Cl)ccc12)C(=O)C1C[C@H]1c1ccccc1` (stereo not given in full), for which the EC50 in data set [1] came to 76.1 nM; in data set [3] it was 411 nM. In data set [2], this compound showed a CC50 of over 11600 nM.

As for `Clc1ccccc1C[n+]1cc(-c2ccccc2)n2c1CCC2`, the values for the half-maximal effective concentration (EC50) in data set [1] and in data set [3] were 2330 nM and 3470 nM, respectively. This compound also had a 50% cytotoxic concentration (CC50) in data set [2] of over 100000 nM.

For the compound `O=C(Oc1ccccc1-c1nc2ccccn2c1NC1CCCCC1)c1ccc([N+](=O)[O-])cc1Cl`, the EC50 is over 1250 nM in data set [1] and 352 nM in data set [3]. Moreover, in data set [2], the CC50 is over 10000 nM.

With `COc1cccc(C(=O)N(C)CCCNc2ccnc3cc(Cl)ccc23)c1`, the EC50 was determined as 390 nM in data set [1] and 208 nM in data set [3]. For the same compound, the 50% cytotoxic concentration (CC50) in data set [2] was 5930 nM.

Consider `Clc1ccc(-c2cn3c([n+]2-c2ccccc2)CCC3)cc1`, for which the figures for the EC50 in data set [1] and in data set [3] were 257 nM and 3510 nM, respectively. Besides, in data set [2], the cytotoxic concentration (CC50) is over 100000 nM.

In the case of `CCOc1ccc(C2N(C)c3ccccc3N2C)cc1`, the EC50 in data set [1] came to 250 nM; in data set [3], 344 nM. The compound further showed a CC50 in data set [2] of over 10000 nM.

Consider `N#Cc1cc2[nH]c3ccccc3c2n(-c2ccc([N+](=O)[O-])cc2)c1=N`, for which the EC50 is 530 nM in data set [1] and 3440 nM in data set [3]. The compound further displayed a CC50 in data set [2] of over 100000 nM.

`COc1cccc2c1C(=O)c1c(O)c3c(c(O)c1C2=O)CC(O)(C(=O)CO)CC3OC1CC(N)C(O)C(C)O1` (stereo not given): the EC50 came to 169 nM in data set [1] and 180 nM in data set [3]. For the same compound, the CC50 in data set [2] came to 5250 nM.

As for `CCCCCCN(C(=O)c1ccc(C(C)(C)C)cc1)C(CC)c1nc2ccccc2c(=O)n1-c1ccccc1OC` (stereo not given), the EC50 was 356 nM in data set [1] and 348 nM in data set [3]. In addition, the CC50 in data set [2] was over 10000 nM.

Consider `CC(=O)Nc1nc(-c2ccc(F)cc2)cs1`, for which the EC50 in data set [1] is over 12500 nM; in data set [3], 3520 nM. Besides, the CC50 in data set [2] is over 100000 nM.

In the case of `COCC(=O)N(C)CCCNc1ccnc2cc(Cl)ccc12`, the EC50 came to 156 nM in data set [1] and 346 nM in data set [3]. In data set [2], this compound had a CC50 of over 10000 nM.

Take `CC(=O)Nc1ccccc1OC(F)(F)F`: the results for the EC50 in data set [1] and in data set [3] were over 349 nM and 468 nM, respectively. The compound further gave a CC50 in data set [2] of over 13200 nM.

Consider `Cc1cc(Nc2cccc(C(F)(F)F)c2)nc2ccc(NC(=O)c3cncc(Br)c3)cc12`, for which the half-maximal effective concentration (EC50) is 2450 nM in data set [1] and 3000 nM in data set [3]. This compound returned a CC50 in data set [2] of over 84400 nM.

Regarding `C[n+]1c2n(c3ccccc31)N=C(c1ccccc1)C[Se]2`, the figures for the EC50 in data set [1] and in data set [3] were 471 nM and 832 nM, respectively. This compound also registered a CC50 in data set [2] of 23600 nM.

Regarding `O=C(CCl)NCCNc1ncc(C(F)(F)F)cc1Cl`, the EC50 was determined as 453 nM in data set [1] and 612 nM in data set [3]. In data set [2], this compound returned a CC50 of 17800 nM.

Regarding `COC(=O)c1sccc1S(=O)(=O)N1CCCC(c2[nH]ncc2-c2ccccc2)C1` (stereo not given), the EC50 in data set [1] is 3030 nM; in data set [3] it was 3440 nM. The same compound registered a CC50 in data set [2] of over 100000 nM.

In the case of `CCC(C)(O)C(=O)O[C@H]1C(=O)OC2CC3C(C)=C[C@H](O)[C@@H](O)[C@]3(C)C3C24CO[C@]3(O)[C@H](O)[C@H](C)C14` (stereo not given in full), the EC50 in data set [1] came out at 227 nM; in data set [3], 215 nM. Besides, the CC50 in data set [2] is over 6250 nM.

For the compound `CCC(C)NC(=O)CN(c1cc(OC)ccc1OC)S(C)(=O)=O` (stereo not given), the EC50 worked out at 438 nM in data set [1] and 349 nM in data set [3]. Besides, in data set [2], the CC50 is over 10000 nM.

Regarding `O=C(Nc1ccc(NC(=O)c2ccco2)cc1Cl)c1ccccc1`, the EC50 is over 1650 nM in data set [1] and over 348 nM in data set [3]. Further, the CC50 in data set [2] was over 10000 nM.
